The source of these data is patent publication US20240085425A1, “BIOMARKER AND APPLICATION THEREOF” (ADLAI NORTYE BIOPHARMA CO., LTD., priority 2022, published 2024).

The subject of experiment [1] is non-phosphorylated β-catenin. Briefly: Western blot of non-phosphorylated β-catenin content in DU4475 cells. The format is cell-based. The conditions noted are these: overnight, read-out: Non-phosphorylated β-catenin content inhibition IC50. The text has this: The Wnt signaling pathway is a key pathway for abnormal tumor growth. In colon cancer, liver cancer, pancreatic cancer and other cancers, a large number of patients have abnormal activation of the Wnt signaling pathway. The Wnt signaling pathway depends on the fine balance of β-catenin protein level. When Wnt signaling is not activated, β-catenin is phosphorylated by CK1 and APC/Axin/GSK-3β complexes, and the β-catenin protein is kept at a low level through ubiquitin-dependent proteasome degradation. When the Wnt signaling pathway is activated, β-catenin maintains a stable state of non-phosphorylation, and non-phosphorylated β-catenin can be transported into the nucleus through Rac1 and other factors, and plays a transcriptional regulatory role by binding to LEF/TCF transcription factors in the nucleus, activates downstream target genes such as C-myc and Cyclin D1, and promotes cell proliferation. Therefore, abnormal activation of the Wnt signaling pathway in tumor cells will lead to abnormal proliferation of tumors. […]
Add 500 μL of the compound with the highest concentration shown in FIG. 1 to each well of the 6-well cell culture plate, and make a 10-fold gradient dilution of the compound concentration. […] Load the protein sample directly to the SDS-PAGE gel for electrophoresis separation, transfer the protein on the SDS-PAGE gel to the PVDF membrane; after the transfer was completed, the protein was blocked by Western blocking solution, then Rabbit anti-β-catenin non-phospho S37/After T41 (ab278503) was added and the protein was incubated at room temperature for one hour and washed, the content of non-phosphorylated β-catenin was detected by incubation with Goat Anti-Rabbit IgG H&L (HRP) (ab6721). […]
Background: Immunoblotting shows a protein as a band on a membrane.

The subject of another experiment is Wnt pathway TCF/LEF. Briefly: Colo205-LUC-TCF/LEF luciferase reporter assay with or without MG132. The conditions noted are these: Colo205-LUC-TCF/LEF cells, 4 hours. The format is cell-based. The method, then:
The Colo205-LUC-TCF/LEF cell line is a reporter tool cell stably transfected with the pGL4.49-LUC2-TCF/LEF vector, and its Wnt/β-catenin pathway is continuously activated. After adding inhibitor, the expression of firefly luciferase regulated by the TCF/LEF cis-element decreased, and after adding the detection substrate, the detected light signal decreased accordingly, thus the inhibitory effect of the compound was detected.
Add 100 μL of the compound AN10250484 at a maximum concentration of 20 μM to each well of the 96-well cell culture plate, and make a 3-fold gradient dilution of the compound concentration. Then inoculate each well with 10,000 stable Colo205-LUC-TCF/LEF cells containing 2 μM MG132 (Proteasome inhibitor) (MCE: HY-13259) or 10,000 Colo205-LUC-TCF/LEF cells containing control solvents, which were treated accordingly as positive and negative control wells. Place the cells in a 5% CO2 cell incubator and incubate at 37° C. for 4 hours. After 4 hours, remove the culture medium, add 100 μL of reagent (Promega) containing the corresponding firefly luciferase substrate to each well, and measure the luciferase reporter gene activity. Use SpectraMax to read the luminescence intensity in full-wavelength mode.
For orientation: In a reporter assay the amount or activity of a reporter protein is the signal.

One may read the IC50 as the concentration needed to halve the response being measured. On to `[2H]C([2H])([2H])N1c2nc(NCc3ccc(Oc4cnc(C(F)(F)F)nc4)nc3)nc3c2N(CCC3)C(=O)[C@]1(C)CO` [AN10250399], for which the IC50 in experiment [1] turned out to be 0.157 µM.
Regarding `Cc1nc(C(F)(F)F)ncc1Oc1ccc(CNc2nc(C)c3c(n2)N(C)[C@@H](C)C(=O)N3)cn1` [AN10250484], the IC50 in experiment [1] was determined as 0.029 µM. Also, the “Inhibitory effect of the compound on the transcription of TCF/LEF after adding MG132” value in the experiment with Wnt pathway TCF/LEF (2 μM MG132, FIG. 2) is on record as “significantly reduced”. The “Transcriptional activity of Wnt pathway TCF/LEF (luciferase reporter), in words” value with Wnt pathway TCF/LEF (control solvent, FIG. 2) was “inhibiting Wnt pathway TCF/LEF”.
